In PMC3082472 (2010):

Test system: RNA probe (thiol / methylene blue E-AB aptamer) (RNA, aptamer) GGGACUUGGUUUAGGUAAUGAGUCCC
Test: electrochemical aptamer-based sensor, square wave voltammetry
Settings: 100 mM NaCl, 5 mM MgCl2; 20 mM Tris, pH 7.5; aptamer immobilised on gold

dissociation constants: 281 µM
SMILES: NC[C@H]1O[C@H](O[C@H]2[C@H](O)[C@@H](O[C@H]3O[C@H](CO)[C@@H](O)[C@H](N)[C@H]3O)[C@H](N)C[C@@H]2N)[C@H](O)[C@@H](O)[C@@H]1O
